Experimental data: PubChem BioAssay (NCI)
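Tested at 5 concentrations; 48 h exposure; 96-well plates; endpoints linearly interpolated, else capped at highest concentration. The concentration for 50% growth inhibition is given as GI50. The concentration for full growth arrest is given as TGI.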

Tests used:
Experiment in all cases: inhibition of tumour cell growth, NCI panel, 48 h
[1] = tested on: HCC-2998 colon
[2] = tested on: HL-60(TB) leukemia
[3] = tested on: KM12 colon
[4] = tested on: UACC-62 melanoma
[5] = tested on: EKVX NSCLC
[6] = tested on: COLO 205 colon
[7] = tested on: MDA-MB-231 breast
[8] = tested on: PC-3 prostate
[9] = tested on: OVCAR-5 ovarian
[10] = tested on: HCT-116 colon

COc1ccc2c(c1)/C(=C\c1c(Cl)n(C)c3ccccc13)C(=O)N2
GI50 [1]: 0.306 µM
TGI [1]: 1.08 µM
GI50 [2]: 0.182 µM
TGI [2]: 2.65 µM
GI50 [3]: 9.06 µM
TGI [3]: 26.4 µM
GI50 [4]: 0.255 µM
TGI [4]: 5.34 µM
GI50 [5]: 3.95 µM
TGI [5]: 24.4 µM
GI50 [6]: 0.721 µM
TGI [6]: 4.36 µM
GI50 [7]: 0.399 µM
TGI [7]: 9.53 µM
GI50 [8]: 1.33 µM
TGI [8]: > 36.8 µM
GI50 [9]: 3.94 µM
TGI [9]: 15.3 µM
GI50 [10]: 1.29 µM
TGI [10]: > 28.6 µM

CC1OC(n2c3ccccc3c3c4c(c5c6ccccc6[nH]c5c32)C(=O)N(CCN2CCOCC2)C4=O)CC(O)C1O (stereo not given)
GI50 [1]: 7.03 µM
TGI [1]: 14 µM
GI50 [2]: 2.28 µM
TGI [2]: 13.1 µM
GI50 [3]: 2.64 µM
TGI [3]: 10.5 µM
GI50 [4]: 1.03 µM
TGI [4]: 6.06 µM
GI50 [5]: 6.14 µM
TGI [5]: 17.7 µM
GI50 [6]: 1.22 µM
TGI [6]: 7.81 µM
GI50 [7]: 6.63 µM
TGI [7]: 18.9 µM
GI50 [8]: 3.55 µM
TGI [8]: 11.4 µM
GI50 [9]: 5.36 µM
TGI [9]: 12.9 µM
GI50 [10]: 1.33 µM
TGI [10]: 6.92 µM

Cc1nn(-c2ccccc2)c2nc3c(nc12)C1=NCCN1C(c1ccc(Cl)cc1)N3 (stereo not given)
GI50 [1]: 1.92 µM
TGI [1]: 3.49 µM
GI50 [2]: 1.87 µM
TGI [2]: 4.4 µM
GI50 [3]: 3.62 µM
TGI [3]: 12.2 µM
GI50 [4]: 1.95 µM
TGI [4]: 3.8 µM
GI50 [6]: 1.84 µM
TGI [6]: 3.36 µM
GI50 [7]: 1.81 µM
TGI [7]: 4.95 µM
GI50 [8]: 4.33 µM
TGI [8]: 18.3 µM
GI50 [9]: 11.4 µM
TGI [9]: 24.3 µM
GI50 [10]: 2.16 µM
TGI [10]: 4.86 µM

CCN(CC)CCCC(Cc1ccccc1)Nc1c2ccc(Cl)cc2nc2ccc(OC)cc12 (stereo not given)
GI50 [1]: 1.61 µM
TGI [1]: 3.3 µM
GI50 [2]: 2.11 µM
TGI [2]: 4.45 µM
GI50 [3]: 2.79 µM
TGI [3]: 10.3 µM
GI50 [4]: 1.95 µM
TGI [4]: 3.64 µM
GI50 [5]: 2.84 µM
TGI [5]: 10.5 µM
GI50 [6]: 1.61 µM
TGI [6]: 3.37 µM
GI50 [7]: 1.65 µM
TGI [7]: 3.7 µM
GI50 [8]: 5.22 µM
TGI [8]: 19.1 µM
GI50 [9]: 2.67 µM
TGI [9]: 12.7 µM
GI50 [10]: 1.95 µM
TGI [10]: 10.7 µM

CC(C(=O)O)/C(=C\c1ccc2c(c1)OCO2)C(=O)O (stereo not given)
TGI [1]: > 100 µM
TGI [2]: 0.21 µM
TGI [3]: > 100 µM
TGI [4]: > 100 µM
TGI [5]: > 100 µM
TGI [6]: > 100 µM
TGI [7]: > 100 µM
TGI [8]: > 100 µM
TGI [9]: > 61.5 µM
TGI [10]: > 100 µM

CC(C)n1c(=O)n(C)c2cnc3cc(F)c(-c4ccc(OCCCN5CCCCC5)nc4)cc3c21
GI50 [1]: 23.3 µM
TGI [1]: > 100 µM
GI50 [2]: 12.7 µM
TGI [2]: 38.2 µM
GI50 [3]: 4.19 µM
TGI [3]: 28.8 µM
GI50 [4]: 14.1 µM
TGI [4]: 29.3 µM
GI50 [5]: 8.19 µM
TGI [5]: 48.9 µM
GI50 [6]: 7.39 µM
TGI [6]: 23.4 µM
GI50 [7]: 11.4 µM
TGI [7]: 27.6 µM
GI50 [8]: 6.94 µM
TGI [8]: 37.1 µM
GI50 [9]: 15.7 µM
TGI [9]: 55.7 µM
GI50 [10]: 10.9 µM
TGI [10]: 27.4 µM

COc1ccc(OC)c(/C=C2\COc3ccc(O)c(O)c3C2=O)c1
GI50 [1]: 1.88 µM
TGI [1]: 3.48 µM
GI50 [2]: 1.42 µM
TGI [2]: 16.1 µM
GI50 [3]: 1.73 µM
TGI [3]: 3.92 µM
GI50 [4]: 1.79 µM
TGI [4]: 4.51 µM
GI50 [5]: 3.26 µM
TGI [5]: 12.2 µM
GI50 [6]: 3.22 µM
TGI [6]: 9.51 µM
GI50 [7]: 2.74 µM
TGI [7]: 11.8 µM
GI50 [8]: 1.82 µM
TGI [8]: 6.82 µM
GI50 [9]: 2.62 µM
TGI [9]: 6.48 µM
GI50 [10]: 1.82 µM
TGI [10]: 4.13 µM

O=C(Cc1ccccc1)NC(c1ccc(Cl)cc1)c1c(O)ccc2ccccc12 (stereo not given)
GI50 [1]: 3.2 µM
TGI [1]: 12.2 µM
GI50 [2]: 2.43 µM
TGI [2]: 6.39 µM
GI50 [3]: 3.62 µM
TGI [3]: 11.7 µM
GI50 [4]: 2.25 µM
TGI [4]: 6.07 µM
GI50 [6]: 1.98 µM
TGI [6]: 3.48 µM
GI50 [7]: 1.98 µM
TGI [7]: 4.73 µM
GI50 [8]: 3.19 µM
TGI [8]: 10.6 µM
GI50 [9]: 3.16 µM
TGI [9]: 10.2 µM
GI50 [10]: 2.17 µM
TGI [10]: 5.16 µM

NC1=CC(=O)c2nc3ccccc3c3ccnc1c23
GI50 [1]: 0.497 µM
TGI [1]: 11.5 µM
GI50 [2]: 6.38 µM
TGI [2]: > 58.8 µM
GI50 [3]: 3.05 µM
TGI [3]: > 65.9 µM
GI50 [4]: 2.38 µM
TGI [4]: 17.2 µM
GI50 [5]: 9.14 µM
TGI [5]: 29.4 µM
GI50 [7]: 16.9 µM
TGI [7]: > 70.1 µM
GI50 [8]: 6.53 µM
TGI [8]: > 48 µM
GI50 [9]: 13.8 µM
TGI [9]: 62 µM
GI50 [10]: 3.99 µM
TGI [10]: > 100 µM

CSC1=Nc2c(c(C)c(C)n2COC(CO)CO)C2=NC(=O)CC(C)N12 (stereo not given)
GI50 [1]: > 100 µM
TGI [1]: > 100 µM
GI50 [2]: 0.0864 µM
TGI [2]: > 100 µM
GI50 [3]: > 100 µM
TGI [3]: > 100 µM
GI50 [4]: > 100 µM
TGI [4]: > 100 µM
GI50 [5]: > 100 µM
TGI [5]: > 100 µM
GI50 [6]: > 100 µM
TGI [6]: > 100 µM
GI50 [7]: > 100 µM
TGI [7]: > 100 µM
GI50 [8]: > 100 µM
TGI [8]: > 100 µM
GI50 [9]: > 100 µM
TGI [9]: > 100 µM
GI50 [10]: > 100 µM
TGI [10]: > 100 µM

O=C1c2cc([N+](=O)[O-])cc3cc([N+](=O)[O-])cc(c23)C(=O)N1CCCNCCNCCCN1C(=O)c2cc([N+](=O)[O-])cc3cc([N+](=O)[O-])cc(c23)C1=O
TGI [1]: 1.51 µM
TGI [2]: 1.13 µM
TGI [3]: 2.51 µM
TGI [4]: 1.48 µM
TGI [5]: 10 µM
TGI [6]: 0.849 µM
TGI [7]: 3.45 µM
TGI [8]: 7.87 µM
TGI [9]: 6.68 µM
TGI [10]: 0.667 µM

H-HIIKKIRTWYRKAWHVLGKV-NH2
GI50 [1]: 3.88 µM
TGI [1]: 31.2 µM
GI50 [2]: 4.29 µM
TGI [2]: 23.3 µM
GI50 [3]: 2.49 µM
TGI [3]: 6.58 µM
GI50 [5]: 2.37 µM
TGI [5]: 6.73 µM
GI50 [6]: 2.11 µM
TGI [6]: 4.92 µM
GI50 [7]: 6.47 µM
TGI [7]: 22.3 µM
GI50 [8]: 2.79 µM
TGI [8]: 9.74 µM
GI50 [9]: 6.22 µM
TGI [9]: 20.5 µM
GI50 [10]: 17.5 µM
TGI [10]: 42 µM

CC1(C)N=C(N)N=C(N)N1c1cccc(CCCCOc2ccccc2)c1
GI50 [1]: 0.0775 µM
TGI [1]: 17.2 µM
GI50 [2]: 0.0239 µM
TGI [2]: 9.6 µM
GI50 [3]: 0.0398 µM
TGI [3]: 25 µM
GI50 [4]: 0.0467 µM
TGI [4]: 13.7 µM
GI50 [6]: 0.0222 µM
TGI [6]: 14.4 µM
GI50 [7]: 0.881 µM
TGI [7]: 48.6 µM
GI50 [8]: < 0.01 µM
TGI [8]: 9.96 µM
GI50 [9]: < 0.0335 µM
TGI [9]: > 100 µM
GI50 [10]: < 0.01 µM
TGI [10]: > 100 µM
